Source: the supplement of paper PMC4858399
Where a name gives a salt, the structure may show the parent alone.

How the values were obtained:
[1] = tested on: Caenorhabditis elegans N2; assay: lowest effective concentration for larval growth inhibition (size below effect threshold); higher = less potent; conditions: exposure time 48 h
Outline: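 Each well of a 96-well plate received 50 C. elegans N2 L1 larvae, which grew for 48 h at 20°C in K-medium containing killed bacteria, 1% DMSO and the chemical at 0.5, 1, 5, 10, 50, 100 or 200 µM. A Biosort recorded the extinction of every worm as its size, and these readings were log-transformed and averaged per well. The lowest effective concentration is defined as the first dose at which the plate-adjusted mean size falls below the threshold and stays below it at all higher doses; that threshold is 5.665.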

[2] = tested on: Caenorhabditis elegans N2; assay: mean nematode size ln(EXT) after 48 h, plate-adjusted (DMSO control set to 6) (ln(EXT), control-adjusted); higher = larger nematodes / less growth inhibition; conditions: exposure time 48 h
Outline: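 In K-medium with killed OP50, 1% DMSO and 0.5–200 µM chemical, synchronised N2 L1 larvae of C. elegans (50 per well) grew for 48 h at 20°C. Extinction was read for every worm on the Biosort, with debris removed by a growth model. Natural-log values averaged per well gave mean size, which was corrected per plate by subtracting the vehicle control mean and adding 6.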

Row | Structure (SMILES) | lowest effective concentration [1] [µM] | mean nematode size ln(EXT) (ln) ([2]; 0.5 µM) | mean nematode size ln(EXT) (ln) ([2]; 1 µM) | mean nematode size ln(EXT) (ln) ([2]; 5 µM) | mean nematode size ln(EXT) (ln) ([2]; 10 µM) | mean nematode size ln(EXT) (ln) ([2]; 50 µM) | mean nematode size ln(EXT) (ln) ([2]; 100 µM) | mean nematode size ln(EXT) (ln) ([2]; 200 µM)
1 | Oc1ccc(Cl)cc1Cl [2,4-Dichlorophenol] | > 200 | 6.05 | 6.13 | 6.07 | 6.04 | 6.03 | 6.03 | 6.92
2 | O=C(O)COc1ccc(Cl)cc1Cl [2,4-Dichlorophenoxyacetic acid (2,4-D)] | > 200 | 5.91 | 5.88 | 5.96 | 5.97 | 5.83 | 6.02 | 5.89
3 | Cc1ccc(O)c(C)c1 [2,4-Dimethylphenol] | > 200 | 5.82 | 5.97 | 5.96 | 5.87 | 5.85 | 5.84 | 5.72
4 | Cc1ccc(C)c(O)c1 [2,5-Dimethylphenol] | > 200 | 5.86 | 5.95 | 5.74 | 5.83 | 5.95 | 5.83 | 5.72
5 | CCc1cccc(CC)c1N [2,6-Diethylaniline] | > 200 | 5.78 | 5.83 | 5.81 | 5.8 | 5.82 | 5.84 | 5.68
6 | CC(=O)OC1CC(C)OC(C)O1 (centres undefined) [2,6-Dimethyl-1,3-dioxan-4-ol acetate] | > 200 | 5.93 | 5.93 | 5.88 | 5.95 | 6.12 | 5.75 | 5.84
7 | Cc1cccc(C)c1N [2,6-Dimethylaniline] | > 200 | 5.87 | 6.07 | 6.05 | 5.98 | 6 | 5.83 | 5.84
8 | Cc1cccc(C)c1O [2,6-Dimethylphenol] | > 200 | 5.9 | 5.89 | 5.89 | 5.78 | 5.88 | 5.65 | 5.82
9 | CCCCOCCOCCO [2-(2-Butoxyethoxy)ethanol] | > 200 | 5.78 | 6 | 6.21 | 5.86 | 5.95 | 5.74 | 5.96
10 | O=c1c(O)c(-c2ccc(O)c(O)c2)oc2cc(O)cc(O)c12 [2-(3,4-Dihydroxy-phenyl)-3,5,7-trihydroxy-chromen-4-one] | > 200 | 5.8 | 5.86 | 5.86 | 5.79 | 4.75 | 5.87 | 5.75
11 | CCC(C)c1ccccc1O (centres undefined) [2-(Butan-2-yl)phenol] | > 200 | 5.9 | 5.85 | 5.89 | 5.94 | 5.86 | 5.82 | 5.7
12 | COc1ccccc1N [2-Anisidine] | > 200 | 5.76 | 5.78 | 5.84 | 5.82 | 5.83 | 5.81 | 5.78
13 | CCC(C)=NO [2-Butanone oxime] | > 200 | 5.68 | 5.89 | 6.05 | 5.8 | 5.82 | 5.68 | 6.2
14 | CCCCOCCO [2-Butoxyethanol] | > 200 | 5.93 | 5.98 | 5.92 | 6 | 6.01 | 5.84 | 5.81
15 | Nc1nc(Cl)nc2c1ncn2[C@H]1C[C@H](O)[C@@H](CO)O1 [2-Chloro-2'-deoxyadenosine] | > 200 | 5.92 | 5.87 | 5.91 | 5.87 | 5.88 | 5.88 | 5.7
16 | OCCCl [2-Chloroethanol] | > 200 | 6 | 5.9 | 5.92 | 5.82 | 5.91 | 5.95 | 5.83
17 | Oc1ccccc1Cl [2-Chlorophenol] | > 200 | 5.99 | 5.99 | 6.06 | 6.11 | 6.21 | 6.13 | 5.71
18 | CCOCCO [2-Ethoxyethanol] | > 200 | 5.85 | 5.79 | 5.75 | 5.64 | 5.72 | 5.89 | 5.79
19 | CCOCCOC(C)=O [2-Ethoxyethyl acetate] | > 200 | 6.11 | 6.11 | 6.07 | 6.08 | 6.07 | 6.04 | 6.57
20 | CCCCC(CC)CO (centres undefined) [2-Ethyl-1-hexanol] | > 200 | 5.86 | 5.82 | 5.79 | 5.75 | 5.7 | 5.85 | 5.92
21 | CCCCC(CC)C(=O)O (centres undefined) [2-Ethylhexanoic acid] | > 200 | 5.7 | 5.88 | 5.79 | 5.81 | 5.76 | 5.7 | 6.12
22 | Cc1ccc([N+](=O)[O-])cc1N [2-Methyl-5-nitroaniline] | 50 | 5.93 | 5.42 | 5.81 | 5.9 | 5.13 | 5.58 | 5.66

Row | Structure (SMILES) | lowest effective concentration [1] [µM] | mean nematode size ln(EXT) (ln) ([2]; 0.5 µM) | mean nematode size ln(EXT) (ln) ([2]; 1 µM) | mean nematode size ln(EXT) (ln) ([2]; 5 µM) | mean nematode size ln(EXT) (ln) ([2]; 10 µM) | mean nematode size ln(EXT) (ln) ([2]; 50 µM) | mean nematode size ln(EXT) (ln) ([2]; 100 µM) | mean nematode size ln(EXT) (ln) ([2]; 200 µM)
23 | Cc1ccccc1N [2-Methylbenzenamine] | > 200 | 5.79 | 5.87 | 5.76 | 5.89 | 5.91 | 5.73 | 5.89
24 | Cc1ccccc1O [2-Methylphenol] | > 200 | 5.98 | 5.9 | 5.94 | 5.82 | 5.92 | 5.94 | 5.81
25 | Cc1ccccc1[N+](=O)[O-] [2-Nitrotoluene] | > 200 | 5.85 | 5.89 | 6.04 | 5.77 | 5.91 | 5.76 | 5.7
26 | CCOCCOCCOCCO [2-[2-(2-Ethoxyethoxy)ethoxy]ethanol] | > 200 | 5.96 | 5.89 | 5.95 | 5.94 | 5.91 | 5.9 | 5.83
27 | COc1ccc([N+](=O)[O-])cc1N [2-methoxy-5-nitroaniline] | > 200 | 5.71 | 5.76 | 5.68 | 5.77 | 5.83 | 5.75 | 5.82
28 | COc1cc(-c2ccc(N)c(OC)c2)ccc1N [3,3'-Dimethoxybenzidine dihydrochloride] | > 200 | 5.89 | 5.91 | 5.9 | 5.65 | 5.72 | 5.41 | 6.4
29 | COc1cc(-c2ccc(N)c(OC)c2)ccc1N [3,3'-Dimethoxybenzidine)] | > 200 | 6 | 6.08 | 6.05 | 6.07 | 6.06 | 6.03 | 5.74
30 | Cc1ccc(N)c(N)c1 [3,4-Diaminotoluene] | > 200 | 5.97 | 5.93 | 5.94 | 5.91 | 5.88 | 5.71 | 5.75
31 | Cc1ccc(O)cc1C [3,4-Dimethylphenol] | > 200 | 5.87 | 5.86 | 5.92 | 5.91 | 5.95 | 5.86 | 5.86
32 | CC(C)=CCC/C(C)=C/C=O [3,7-Dimethyl-2,6-octadienal] | > 200 | 5.72 | 5.74 | 5.77 | 5.84 | 5.78 | 5.88 | 5.73
33 | Cc1cccc(N)c1 [3-Methylaniline] | > 200 | 5.82 | 5.86 | 5.86 | 5.88 | 5.91 | 5.99 | 5.79
34 | Cc1cccc([N+](=O)[O-])c1 [3-Nitrotoluene] | > 200 | 5.78 | 5.89 | 5.82 | 5.77 | 5.93 | 5.88 | 5.85
35 | O=C(O)c1cccc(Oc2ccccc2)c1 [3-Phenoxybenzoic acid] | > 200 | 5.87 | 5.85 | 5.89 | 5.87 | 5.83 | 5.83 | 5.91
36 | CCO[Si](CCCNC(N)=O)(OCC)OCC [3-Ureidopropyltriethoxysilane] | > 200 | 5.84 | 5.83 | 5.84 | 5.8 | 5.74 | 5.63 | 5.84
37 | Cc1cc(Cc2ccc(N)c(C)c2)ccc1N [4,4'-Methylene bis(2-methylaniline)] | > 200 | 5.83 | 5.82 | 5.8 | 5.78 | 5.79 | 5.83 | 5.71
38 | c1cc(-c2ccncc2)ccn1 [4,4'-bipyridine] | > 200 | 5.97 | 5.91 | 5.89 | 5.94 | 5.95 | 6.01 | 5.85
39 | O=C1OC(=O)C2C3C=CC(C3)C12 (centres undefined) [4,7-Methanoisobenzofuran-1,3-dione, 3A,4,7,7A-tetrahydro-] | > 200 | 5.86 | 5.82 | 5.84 | 5.82 | 5.8 | 5.52 | 5.71
40 | Nc1ccc(C(=O)O)cc1 [4-Aminobenzoic acid] | > 200 | 5.84 | 5.87 | 5.81 | 5.49 | 5.83 | 5.85 | 5.72
41 | O=C1CCCO1 [4-Butyrolactone] | > 200 | 6.1 | 6.08 | 6 | 6.1 | 6.09 | 6.02 | 5.81
42 | Cc1cc(O)ccc1Cl [4-Chloro-3-methylphenol] | > 200 | 5.83 | 5.8 | 5.79 | 5.82 | 5.85 | 5.78 | 5.68
43 | COc1cc(C=O)ccc1O [4-Hydroxy-3-methoxy-benzaldehyde] | > 200 | 5.83 | 5.83 | 5.77 | 5.77 | 5.69 | 5.84 | 5.8
